Reference: PMC5513037, “Examining the influence of specificity ligands and ATP-competitive ligands on the overall effectiveness of bivalent kinase inhibitors” (Proteome Science, 2017)
pIC50: −log10 of the molar value.

Columns and labels:
Test in all cases: KAM-matrix competition in K562 lysate
Format in all cases: binding
NEK8 = target: T1, NEK8 (Homo sapiens, UniProt Q86SG6)
T1 construct: endogenous in cells; host or cells: K562
T1 sequence (Q86SG6 1-692): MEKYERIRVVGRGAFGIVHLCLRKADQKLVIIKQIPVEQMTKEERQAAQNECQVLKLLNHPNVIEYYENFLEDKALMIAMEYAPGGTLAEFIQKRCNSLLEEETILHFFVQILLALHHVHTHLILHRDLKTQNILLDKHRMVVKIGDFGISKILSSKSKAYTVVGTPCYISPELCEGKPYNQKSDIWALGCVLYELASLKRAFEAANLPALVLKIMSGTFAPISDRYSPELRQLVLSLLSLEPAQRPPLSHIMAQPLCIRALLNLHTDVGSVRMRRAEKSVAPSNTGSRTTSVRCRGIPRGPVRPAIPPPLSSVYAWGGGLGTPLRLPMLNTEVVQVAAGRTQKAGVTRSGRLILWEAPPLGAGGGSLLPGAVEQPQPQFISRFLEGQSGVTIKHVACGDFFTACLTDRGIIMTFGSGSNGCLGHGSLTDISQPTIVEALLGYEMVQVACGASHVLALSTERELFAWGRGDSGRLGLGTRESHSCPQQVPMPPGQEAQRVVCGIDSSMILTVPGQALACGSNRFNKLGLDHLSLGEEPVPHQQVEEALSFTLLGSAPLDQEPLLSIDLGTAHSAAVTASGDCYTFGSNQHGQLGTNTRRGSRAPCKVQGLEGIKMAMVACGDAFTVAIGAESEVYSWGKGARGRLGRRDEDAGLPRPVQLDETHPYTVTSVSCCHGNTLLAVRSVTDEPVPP
Description: (§1) Supplement 12953_2017_125_MOESM1_ESM.zip/MS_Supp Info.xlsx, sheet "KAM" | column: 10 uM KAM; 1 uM KAM; 0.1 uM KAM; 0.01 uM KAM; 0.001 uM KAM; RB50

NEK1 = target: T2, NEK1 (Homo sapiens, UniProt Q96PY6)
T2 construct: endogenous in cells; host or cells: K562
T2 sequence (Q96PY6 1-1258): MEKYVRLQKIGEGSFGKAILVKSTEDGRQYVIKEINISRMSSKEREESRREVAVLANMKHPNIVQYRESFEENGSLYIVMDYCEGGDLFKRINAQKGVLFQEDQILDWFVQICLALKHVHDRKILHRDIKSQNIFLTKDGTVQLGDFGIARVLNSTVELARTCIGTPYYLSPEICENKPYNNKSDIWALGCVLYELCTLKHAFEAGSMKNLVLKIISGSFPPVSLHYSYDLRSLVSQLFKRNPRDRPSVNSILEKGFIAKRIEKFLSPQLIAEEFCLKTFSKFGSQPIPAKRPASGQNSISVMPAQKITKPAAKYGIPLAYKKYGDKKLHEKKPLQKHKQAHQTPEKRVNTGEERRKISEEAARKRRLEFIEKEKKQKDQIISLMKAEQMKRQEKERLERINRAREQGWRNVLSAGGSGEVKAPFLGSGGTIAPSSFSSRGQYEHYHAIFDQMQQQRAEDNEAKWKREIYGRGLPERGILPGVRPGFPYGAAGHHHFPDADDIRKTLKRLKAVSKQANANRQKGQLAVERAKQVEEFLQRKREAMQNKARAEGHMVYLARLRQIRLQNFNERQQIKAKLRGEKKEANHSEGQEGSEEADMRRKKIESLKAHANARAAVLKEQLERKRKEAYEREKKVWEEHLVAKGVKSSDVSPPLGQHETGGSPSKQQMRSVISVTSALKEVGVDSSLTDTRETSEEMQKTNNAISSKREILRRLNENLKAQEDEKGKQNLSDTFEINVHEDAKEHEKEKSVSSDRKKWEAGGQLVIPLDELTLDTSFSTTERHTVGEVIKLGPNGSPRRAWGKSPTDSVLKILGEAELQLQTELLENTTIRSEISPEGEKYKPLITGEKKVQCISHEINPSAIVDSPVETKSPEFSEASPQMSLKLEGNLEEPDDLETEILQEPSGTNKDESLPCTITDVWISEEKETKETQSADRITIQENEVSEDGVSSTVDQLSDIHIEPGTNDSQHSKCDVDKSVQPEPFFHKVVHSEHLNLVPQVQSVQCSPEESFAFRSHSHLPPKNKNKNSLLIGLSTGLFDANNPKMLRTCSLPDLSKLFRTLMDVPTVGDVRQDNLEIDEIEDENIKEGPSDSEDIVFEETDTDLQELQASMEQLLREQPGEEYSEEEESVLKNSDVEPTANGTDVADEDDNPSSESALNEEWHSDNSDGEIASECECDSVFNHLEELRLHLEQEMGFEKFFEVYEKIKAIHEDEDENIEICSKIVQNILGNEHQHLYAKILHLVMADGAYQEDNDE
Description: as §1

BRD2 = target: T3, BRD2 (Homo sapiens, UniProt P25440)
T3 construct: endogenous in cells; host or cells: K562
Description: as §1

LYN = target: T4, LYN (Homo sapiens, UniProt P07948)
T4 construct: endogenous in cells; host or cells: K562
Description: as §1

CDK13 = target: T5, CDK13 (Homo sapiens, UniProt Q14004)
T5 construct: endogenous in cells; host or cells: K562
Description: as §1

YES1 = target: T6, YES1 (Homo sapiens, UniProt P07947)
T6 construct: endogenous in cells; host or cells: K562
Description: as §1

TYK2 = target: T7, TYK2 (Homo sapiens, UniProt P29597)
T7 construct: endogenous in cells; host or cells: K562
Description: as §1

[1] = read-out: RB50 (the source's name)

T6 sequence (P07947 whole entry): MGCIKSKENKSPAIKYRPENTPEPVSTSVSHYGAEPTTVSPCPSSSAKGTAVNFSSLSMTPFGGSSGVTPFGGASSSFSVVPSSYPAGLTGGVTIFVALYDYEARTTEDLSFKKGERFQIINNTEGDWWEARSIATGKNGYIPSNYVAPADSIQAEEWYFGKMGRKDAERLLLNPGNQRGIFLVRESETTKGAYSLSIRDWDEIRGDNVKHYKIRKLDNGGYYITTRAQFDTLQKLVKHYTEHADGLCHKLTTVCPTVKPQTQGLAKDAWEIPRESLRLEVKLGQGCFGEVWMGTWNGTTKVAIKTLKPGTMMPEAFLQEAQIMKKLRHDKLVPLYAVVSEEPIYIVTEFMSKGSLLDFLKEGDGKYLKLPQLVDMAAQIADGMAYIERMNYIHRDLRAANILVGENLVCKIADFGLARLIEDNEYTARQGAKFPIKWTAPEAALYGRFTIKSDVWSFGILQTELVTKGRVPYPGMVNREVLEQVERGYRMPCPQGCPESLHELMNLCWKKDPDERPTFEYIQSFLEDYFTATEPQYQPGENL
T3 sequence (P25440 whole entry): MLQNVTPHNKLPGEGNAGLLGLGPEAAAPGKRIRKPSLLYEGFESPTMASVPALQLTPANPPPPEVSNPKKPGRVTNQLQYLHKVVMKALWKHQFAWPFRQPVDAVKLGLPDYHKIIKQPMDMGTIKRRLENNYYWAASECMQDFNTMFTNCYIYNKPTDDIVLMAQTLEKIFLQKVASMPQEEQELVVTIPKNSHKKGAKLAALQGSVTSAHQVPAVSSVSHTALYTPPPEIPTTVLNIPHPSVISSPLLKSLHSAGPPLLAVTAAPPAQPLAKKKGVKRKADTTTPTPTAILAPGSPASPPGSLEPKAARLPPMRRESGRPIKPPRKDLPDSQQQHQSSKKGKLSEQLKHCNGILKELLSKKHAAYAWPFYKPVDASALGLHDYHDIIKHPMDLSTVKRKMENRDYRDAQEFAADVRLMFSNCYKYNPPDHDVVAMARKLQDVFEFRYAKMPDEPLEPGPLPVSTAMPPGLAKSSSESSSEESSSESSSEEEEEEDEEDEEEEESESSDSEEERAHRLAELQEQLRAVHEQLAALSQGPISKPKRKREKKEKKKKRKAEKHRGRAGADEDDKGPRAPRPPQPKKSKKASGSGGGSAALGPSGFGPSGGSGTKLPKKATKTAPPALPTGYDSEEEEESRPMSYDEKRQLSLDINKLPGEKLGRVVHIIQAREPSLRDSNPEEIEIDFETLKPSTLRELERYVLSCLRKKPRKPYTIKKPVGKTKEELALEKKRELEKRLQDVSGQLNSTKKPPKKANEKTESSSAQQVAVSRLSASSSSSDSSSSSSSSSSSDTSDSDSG
T4 sequence (P07948 whole entry): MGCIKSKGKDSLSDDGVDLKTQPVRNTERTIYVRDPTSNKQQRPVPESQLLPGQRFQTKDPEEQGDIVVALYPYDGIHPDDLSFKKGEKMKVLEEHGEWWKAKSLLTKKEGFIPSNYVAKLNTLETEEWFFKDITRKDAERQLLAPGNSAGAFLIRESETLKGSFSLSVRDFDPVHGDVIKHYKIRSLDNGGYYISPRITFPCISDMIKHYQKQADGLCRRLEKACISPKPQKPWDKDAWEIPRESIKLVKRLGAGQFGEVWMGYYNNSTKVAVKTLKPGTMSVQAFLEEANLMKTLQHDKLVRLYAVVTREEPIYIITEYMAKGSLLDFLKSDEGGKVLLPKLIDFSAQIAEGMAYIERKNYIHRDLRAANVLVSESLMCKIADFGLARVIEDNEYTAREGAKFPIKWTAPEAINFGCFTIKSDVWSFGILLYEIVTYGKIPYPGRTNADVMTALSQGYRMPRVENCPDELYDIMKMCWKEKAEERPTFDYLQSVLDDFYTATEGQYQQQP
T5 sequence (Q14004 whole entry): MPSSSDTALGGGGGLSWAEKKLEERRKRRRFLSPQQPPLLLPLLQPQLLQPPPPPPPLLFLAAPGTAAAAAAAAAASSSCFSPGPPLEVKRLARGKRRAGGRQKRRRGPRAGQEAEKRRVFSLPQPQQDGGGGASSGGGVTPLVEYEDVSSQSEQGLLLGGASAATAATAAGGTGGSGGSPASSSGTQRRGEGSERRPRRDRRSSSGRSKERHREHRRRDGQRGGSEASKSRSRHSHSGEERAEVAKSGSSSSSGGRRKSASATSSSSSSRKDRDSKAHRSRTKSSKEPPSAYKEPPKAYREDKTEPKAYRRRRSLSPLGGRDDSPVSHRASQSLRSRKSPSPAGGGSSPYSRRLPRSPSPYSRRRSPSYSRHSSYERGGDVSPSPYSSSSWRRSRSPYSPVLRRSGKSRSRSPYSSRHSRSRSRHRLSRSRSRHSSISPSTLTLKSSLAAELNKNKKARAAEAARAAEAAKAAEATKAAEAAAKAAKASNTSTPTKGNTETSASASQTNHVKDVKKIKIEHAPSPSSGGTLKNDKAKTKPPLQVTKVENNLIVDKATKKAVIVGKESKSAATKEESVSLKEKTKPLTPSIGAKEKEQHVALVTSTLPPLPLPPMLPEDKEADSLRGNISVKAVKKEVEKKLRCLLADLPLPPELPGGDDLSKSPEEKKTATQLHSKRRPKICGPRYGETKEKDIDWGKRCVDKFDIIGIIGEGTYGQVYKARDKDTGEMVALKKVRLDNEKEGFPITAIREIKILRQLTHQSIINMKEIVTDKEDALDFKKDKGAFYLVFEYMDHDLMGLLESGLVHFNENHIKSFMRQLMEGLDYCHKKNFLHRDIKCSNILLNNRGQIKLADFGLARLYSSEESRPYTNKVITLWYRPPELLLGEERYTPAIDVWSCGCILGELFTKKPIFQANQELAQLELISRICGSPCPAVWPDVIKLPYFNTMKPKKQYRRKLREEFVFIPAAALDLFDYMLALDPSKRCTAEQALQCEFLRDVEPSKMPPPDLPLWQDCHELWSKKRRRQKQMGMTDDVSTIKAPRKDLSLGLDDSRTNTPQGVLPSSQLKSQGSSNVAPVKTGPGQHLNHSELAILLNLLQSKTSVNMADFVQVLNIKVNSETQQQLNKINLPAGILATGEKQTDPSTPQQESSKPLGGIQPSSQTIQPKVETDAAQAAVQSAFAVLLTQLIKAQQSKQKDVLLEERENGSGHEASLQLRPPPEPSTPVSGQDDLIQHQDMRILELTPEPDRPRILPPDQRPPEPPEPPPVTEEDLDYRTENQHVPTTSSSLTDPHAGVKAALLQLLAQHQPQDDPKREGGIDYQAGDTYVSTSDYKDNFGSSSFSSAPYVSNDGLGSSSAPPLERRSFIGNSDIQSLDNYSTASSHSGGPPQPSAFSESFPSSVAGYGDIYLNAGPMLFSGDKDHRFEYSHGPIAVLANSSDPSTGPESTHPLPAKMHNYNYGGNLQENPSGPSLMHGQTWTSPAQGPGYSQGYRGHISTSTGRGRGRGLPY
T7 sequence (P29597 whole entry): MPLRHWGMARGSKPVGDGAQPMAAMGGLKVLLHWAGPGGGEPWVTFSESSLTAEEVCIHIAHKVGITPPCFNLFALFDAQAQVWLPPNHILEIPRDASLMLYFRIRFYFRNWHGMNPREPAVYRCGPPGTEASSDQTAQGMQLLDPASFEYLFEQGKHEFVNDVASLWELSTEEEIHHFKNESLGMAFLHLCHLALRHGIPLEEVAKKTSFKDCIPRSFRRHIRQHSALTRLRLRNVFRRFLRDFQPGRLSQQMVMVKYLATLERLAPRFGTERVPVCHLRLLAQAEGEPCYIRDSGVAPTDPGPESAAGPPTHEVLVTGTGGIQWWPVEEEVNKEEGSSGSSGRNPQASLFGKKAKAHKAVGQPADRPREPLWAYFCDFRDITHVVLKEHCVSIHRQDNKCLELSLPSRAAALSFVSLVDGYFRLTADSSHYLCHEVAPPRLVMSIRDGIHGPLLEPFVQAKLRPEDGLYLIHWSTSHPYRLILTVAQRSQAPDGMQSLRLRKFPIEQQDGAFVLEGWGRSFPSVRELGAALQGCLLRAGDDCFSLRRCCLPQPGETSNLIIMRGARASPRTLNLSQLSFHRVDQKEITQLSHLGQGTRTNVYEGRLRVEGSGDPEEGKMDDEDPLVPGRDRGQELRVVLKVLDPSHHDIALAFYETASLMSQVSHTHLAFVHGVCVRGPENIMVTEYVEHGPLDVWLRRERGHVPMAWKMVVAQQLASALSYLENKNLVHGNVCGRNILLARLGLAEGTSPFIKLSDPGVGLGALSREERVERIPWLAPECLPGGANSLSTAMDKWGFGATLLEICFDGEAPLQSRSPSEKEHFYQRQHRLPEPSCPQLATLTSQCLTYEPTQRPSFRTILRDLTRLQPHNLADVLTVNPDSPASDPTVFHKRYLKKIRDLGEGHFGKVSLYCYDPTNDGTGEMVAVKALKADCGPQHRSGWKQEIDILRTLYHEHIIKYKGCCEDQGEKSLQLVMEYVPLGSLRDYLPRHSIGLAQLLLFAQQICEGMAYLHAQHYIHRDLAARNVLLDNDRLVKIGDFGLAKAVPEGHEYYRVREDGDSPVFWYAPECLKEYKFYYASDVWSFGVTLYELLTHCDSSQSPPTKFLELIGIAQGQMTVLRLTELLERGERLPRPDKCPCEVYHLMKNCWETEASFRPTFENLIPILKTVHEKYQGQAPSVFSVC

N#CCc1ccc(Nc2nc(NCCCN)cc(Nc3cc(C4CC4)[nH]n3)n2)cc1 [KAM]
median Log10 fold change (NEK8; 0.001 uM KAM): -0.1269
median Log10 fold change (NEK8; 0.01 uM KAM): -0.1123
median Log10 fold change (NEK8; 0.1 uM KAM): -0.2566
median Log10 fold change (NEK8; 1 uM KAM): -0.2815
median Log10 fold change (NEK8; 10 uM KAM): -0.455
pIC50 (NEK8; [1]): 6.06
median Log10 fold change (NEK1; 0.001 uM KAM): -0.02178
median Log10 fold change (NEK1; 0.01 uM KAM): -0.02485
median Log10 fold change (NEK1; 0.1 uM KAM): -0.1728
median Log10 fold change (NEK1; 1 uM KAM): -0.239
median Log10 fold change (NEK1; 10 uM KAM): -0.318
pIC50 (NEK1; [1]): 5.47
median Log10 fold change (BRD2; 0.001 uM KAM): -0.02696
median Log10 fold change (BRD2; 0.01 uM KAM): -0.0008346
median Log10 fold change (BRD2; 0.1 uM KAM): -0.172
median Log10 fold change (BRD2; 1 uM KAM): -0.286
median Log10 fold change (BRD2; 10 uM KAM): -0.3099
pIC50 (BRD2; [1]): 5.72
median Log10 fold change (LYN; 0.001 uM KAM): -0.01474
median Log10 fold change (LYN; 0.01 uM KAM): -0.009336
median Log10 fold change (LYN; 0.1 uM KAM): -0.1214
median Log10 fold change (LYN; 1 uM KAM): -0.4299
median Log10 fold change (LYN; 10 uM KAM): -0.513
pIC50 (LYN; [1]): 6.22
median Log10 fold change (CDK13; 0.001 uM KAM): -0.01353
median Log10 fold change (CDK13; 0.01 uM KAM): -0.006338
median Log10 fold change (CDK13; 0.1 uM KAM): -0.0866
median Log10 fold change (CDK13; 1 uM KAM): -0.2891
median Log10 fold change (CDK13; 10 uM KAM): -0.4319
pIC50 (CDK13; [1]): 5.83
median Log10 fold change (YES1; 0.001 uM KAM): 0.00764
median Log10 fold change (YES1; 0.01 uM KAM): 0.01465
median Log10 fold change (YES1; 0.1 uM KAM): -0.1546
median Log10 fold change (YES1; 1 uM KAM): -0.4462
median Log10 fold change (YES1; 10 uM KAM): -0.6732
pIC50 (YES1; [1]): 6.34
median Log10 fold change (TYK2; 0.001 uM KAM): -0.01748
median Log10 fold change (TYK2; 0.01 uM KAM): -0.01468
median Log10 fold change (TYK2; 0.1 uM KAM): -0.1723
median Log10 fold change (TYK2; 1 uM KAM): -0.4058
median Log10 fold change (TYK2; 10 uM KAM): -0.4958
pIC50 (TYK2; [1]): 6.27
